Measurements taken from patent publication US9994522B2, “Amorphous form of apremilast” (MAPI PHARMA LTD., priority 2014, dated 2018).

Key:
Format in all cases: physicochemical
[1] = Dynamic Vapor Sorption (DVS) / hygroscopicity; conditions: for Change In Mass (%) - ref, Desorption / Change In Mass (%) - ref, Sorption / Change In Mass (%) - ref, Hysteresis: 25° C.
Method: Details of DVS method used in the tests are mentioned below: • Samples (about 10 mg) were transferred into a DVS pan, the weight changes were recorded with respect to the atmospheric humidity at 25° C.
The following parameters were used: • Equilibrium: dm/dt: 0.01%/min. (for min: 10 min and max: 180 min). • Drying: 0% RH for 120 min. • RH (%) measurement step: 5%, • RH (%) measurement step scope: 0˜95˜0%.

[2] = Physical stability on storage, mDSC
Method: Details of mDSC methods used in the tests are mentioned below: • Method I: Amorphous samples (about 1 mg) were run a modulated DSC using Tzero aluminum pans heated from 0° C. to 200° C. at speed of 2° C./min, with modulation temperature amplitude 1.0° C. and modulation 60 s. • Method II: The two-cycle heating mDSC was run using Tzero aluminum hermetic pans with pinhole with first cycle heated from 0° C. to 160° C. at speed of 2° C./min and the second cycle from 0° C. to 260° C. at speed of 2° C./min.
(§1) About 40 mg of scaled up amorphous sample prepared by solvent-anti-solvent precipitation (addition of water to acetone) as described in Example 6 was weighed into glass vials. The vials were stored under different testing conditions (25° C. closed vial, 25° C./60% RH, 40° C. closed vial and 40° C./75% RH) 1 week, 2 weeks, 4 weeks, and 3 months. The original scaled up amorphous form was used as a control. XRPD and mDSC were checked at the end of each time point.

[3] = Physical stability on storage, XRPD pattern; conditions: for physical stability: 25° C. closed, 25° C./60% RH and 40° C. closed, three months (not 40° C./75% RH)
Method: 3.1 XRPD Method • Details of XRPD method used in the tests are mentioned below: • X-ray Generator: Cu, Kα (λ=1.54179 Å). • Tube Voltage: 40 kV; Current: 40 mA. • Scanning Scope: 4 to 40 deg; • Sample rotation speed: 15 rpm. • Scanning rate: 10 deg/min
as §1

[4] = Physical stability on storage, appearance
Method: as §1

[5] = DVS Cycle 1, target 10.0 % P/Po
[6] = DVS Cycle 1, target 15.0 % P/Po
[7] = DVS Cycle 1, target 20.0 % P/Po
[8] = DVS Cycle 1, target 25.0 % P/Po
[9] = DVS Cycle 1, target 30.0 % P/Po
[10] = DVS Cycle 1, target 35.0 % P/Po
[11] = DVS Cycle 1, target 40.0 % P/Po
[12] = DVS Cycle 1, target 45.0 % P/Po
[13] = DVS Cycle 1, target 50.0 % P/Po
[14] = DVS Cycle 1, target 55.0 % P/Po
[15] = DVS Cycle 1, target 60.0 % P/Po
[16] = DVS Cycle 1, target 65.0 % P/Po
[17] = DVS Cycle 1, target 70.0 % P/Po
[18] = DVS Cycle 1, target 75.0 % P/Po
[19] = DVS Cycle 1, target 80.0 % P/Po
[20] = DVS Cycle 1, target 85.0 % P/Po
[21] = DVS Cycle 1, target 90.0 % P/Po
[22] = DVS Cycle 1, target 95.0 % P/Po
[23] = stored 25° C. Closed, 3rd month
[24] = stored 25° C./60% RH, 3rd month
[25] = stored 40° C. Closed, 3rd month
[26] = stored 40° C./75% RH, 3rd month

Structure (SMILES): CCOc1cc([C@@H](CS(C)(=O)=O)N2C(=O)c3cccc(NC(C)=O)c3C2=O)ccc1OC [amorphous apremilast, N-[2-[(1S)-1-(3-ethoxy-4-methoxyphenyl)-2-(methylsulfonyl)ethyl]-2,3-dihydro-1,3-dioxo-1H-isoindol-4-yl]acetamide]
- Change In Mass (%) - ref, Desorption ([1]; DVS Cycle 1, target 0.0 % P/Po): −0.066%
- Change In Mass (%) - ref, Sorption ([1]; DVS Cycle 1, target 0.0 % P/Po): −0.010%
- Change In Mass (%) - ref, Desorption ([1]; DVS Cycle 1, target 5.0 % P/Po): 0.138%
- Change In Mass (%) - ref, Hysteresis ([1]; DVS Cycle 1, target 5.0 % P/Po): −0.045%
- Change In Mass (%) - ref, Sorption ([1]; DVS Cycle 1, target 5.0 % P/Po): 0.183%
- Change In Mass (%) - ref, Desorption [1, 5]: 0.308%
- Change In Mass (%) - ref, Hysteresis [1, 5]: −0.006%
- Change In Mass (%) - ref, Sorption [1, 5]: 0.314%
- Change In Mass (%) - ref, Desorption [1, 6]: 0.463%
- Change In Mass (%) - ref, Hysteresis [1, 6]: 0.030%
- Change In Mass (%) - ref, Sorption [1, 6]: 0.434%
- Change In Mass (%) - ref, Desorption [1, 7]: 0.606%
- Change In Mass (%) - ref, Hysteresis [1, 7]: 0.066%
- Change In Mass (%) - ref, Sorption [1, 7]: 0.540%
- Change In Mass (%) - ref, Desorption [1, 8]: 0.740%
- Change In Mass (%) - ref, Hysteresis [1, 8]: 0.107%
- Change In Mass (%) - ref, Sorption [1, 8]: 0.633%
- Change In Mass (%) - ref, Desorption [1, 9]: 0.860%
- Change In Mass (%) - ref, Hysteresis [1, 9]: 0.131%
- Change In Mass (%) - ref, Sorption [1, 9]: 0.730%
- Change In Mass (%) - ref, Desorption [1, 10]: 0.976%
- Change In Mass (%) - ref, Hysteresis [1, 10]: 0.155%
- Change In Mass (%) - ref, Sorption [1, 10]: 0.821%
- Change In Mass (%) - ref, Desorption [1, 11]: 1.090%
- Change In Mass (%) - ref, Hysteresis [1, 11]: 0.181%
- Change In Mass (%) - ref, Sorption [1, 11]: 0.909%
- Change In Mass (%) - ref, Desorption [1, 12]: 1.203%
- Change In Mass (%) - ref, Hysteresis [1, 12]: 0.200%
- Change In Mass (%) - ref, Sorption [1, 12]: 1.003%
- Change In Mass (%) - ref, Desorption [1, 13]: 1.311%
- Change In Mass (%) - ref, Hysteresis [1, 13]: 0.224%
- Change In Mass (%) - ref, Sorption [1, 13]: 1.087%
- Change In Mass (%) - ref, Desorption [1, 14]: 1.411%
- Change In Mass (%) - ref, Hysteresis [1, 14]: 0.238%
- Change In Mass (%) - ref, Sorption [1, 14]: 1.173%
- Change In Mass (%) - ref, Desorption [1, 15]: 1.514%
- Change In Mass (%) - ref, Hysteresis [1, 15]: 0.250%
- Change In Mass (%) - ref, Sorption [1, 15]: 1.263%
- Change In Mass (%) - ref, Desorption [1, 16]: 1.619%
- Change In Mass (%) - ref, Hysteresis [1, 16]: 0.258%
- Change In Mass (%) - ref, Sorption [1, 16]: 1.360%
- Change In Mass (%) - ref, Desorption [1, 17]: 1.730%
- Change In Mass (%) - ref, Hysteresis [1, 17]: 0.270%
- Change In Mass (%) - ref, Sorption [1, 17]: 1.460%
- Change In Mass (%) - ref, Desorption [1, 18]: 1.836%
- Change In Mass (%) - ref, Hysteresis [1, 18]: 0.338%
- Change In Mass (%) - ref, Sorption [1, 18]: 1.498%
- Change In Mass (%) - ref, Desorption [1, 19]: 1.940%
- Change In Mass (%) - ref, Hysteresis [1, 19]: 0.306%
- Change In Mass (%) - ref, Sorption [1, 19]: 1.634%
- Change In Mass (%) - ref, Desorption [1, 20]: 1.972%
- Change In Mass (%) - ref, Hysteresis [1, 20]: 0.208%
- Change In Mass (%) - ref, Sorption [1, 20]: 1.763%
- Change In Mass (%) - ref, Desorption [1, 21]: 1.956%
- Change In Mass (%) - ref, Hysteresis [1, 21]: 0.122%
- Change In Mass (%) - ref, Sorption [1, 21]: 1.834%
- Change In Mass (%) - ref, Desorption [1, 22]: 1.883%
- Change In Mass (%) - ref, Sorption [1, 22]: 1.883%
- Hygroscopicity Classification ([1]; based on DVS data, criterion at 25 ± 1° C. and 80 ± 2% RH): slightly hygroscopic
- Tg of mDSC (first glass transition temperature) ([2]; Initial): 77.7 °C
- Tg of mDSC (second glass transition temperature) ([2]; Initial): 133.5 °C
- change of first glass transition temperature (77.7° C.) on storage ([2]; all testing conditions, up to end of the third month): did not change significantly
- change of second glass transition temperature (133.6° C.) on storage ([2]; different testing conditions, first week and second week): changed irregularly and even disappeared
- heat of fusion peak related to crystalline conversion ([2]; stored 25° C. (closed), 40° C. (closed) and 25° C./60% RH for three months): No heat of fusion peak related to crystalline conversion
- Tg of mDSC (first glass transition temperature) ([2]; stored 25° C. Closed, 1st week): 77.7 °C
- Tg of mDSC (first glass transition temperature) ([2]; stored 25° C. Closed, 2nd week): 78.5 °C
- Tg of mDSC (second glass transition temperature) ([2]; stored 25° C. Closed, 2nd week): 181.3 °C
- Tg of mDSC (first glass transition temperature) [2, 23]: 79.0 °C
- Tg of mDSC (first glass transition temperature) ([2]; stored 25° C. Closed, 4th week): 78.2 °C
- Tg of mDSC (first glass transition temperature) ([2]; stored 25° C./60% RH, 1st week): 78.4 °C
- Tg of mDSC (second glass transition temperature) ([2]; stored 25° C./60% RH, 1st week): 171.4 °C
- Tg of mDSC (first glass transition temperature) ([2]; stored 25° C./60% RH, 2nd week): 78.8 °C
- Tg of mDSC (first glass transition temperature) [2, 24]: 79.9 °C
- Tg of mDSC (first glass transition temperature) ([2]; stored 25° C./60% RH, 4th week): 78.9 °C
- Tg of mDSC (first glass transition temperature) ([2]; stored 40° C. Closed, 1st week): 79.1 °C
- Tg of mDSC (first glass transition temperature) ([2]; stored 40° C. Closed, 2nd week): 79.7 °C
- Tg of mDSC (second glass transition temperature) ([2]; stored 40° C. Closed, 2nd week): 170.4 °C
- Tg of mDSC (first glass transition temperature) [2, 25]: 83.9 °C
- Tg of mDSC (first glass transition temperature) ([2]; stored 40° C. Closed, 4th week): 81.1 °C
- Tg of mDSC (first glass transition temperature) ([2]; stored 40° C./75% RH, 1st week): 77.5 °C
- Tg of mDSC (second glass transition temperature) ([2]; stored 40° C./75% RH, 1st week): 105.9 °C
- Tg of mDSC (first glass transition temperature) ([2]; stored 40° C./75% RH, 2nd week): 77.8 °C
- Tg of mDSC (second glass transition temperature) ([2]; stored 40° C./75% RH, 2nd week): 174.5 °C
- Tg of mDSC (first glass transition temperature) [2, 26]: 77.7 °C
- Tg of mDSC (first glass transition temperature) ([2]; stored 40° C./75% RH, 4th week): 78.0 °C
- sharp endothermic peak on mDSC (related to melting point of the crystalline form) ([2]; stored 40° C./75% RH, third month): 153.4 °C
- physical stability [3]: good physical stability
- physical stability ([3]; listed as Apremilast): stable for three months
- XRPD Pattern ([3]; Initial): Amorphous
- XRPD Pattern ([3]; stored 25° C. Closed, 1st week): Amorphous
- XRPD Pattern ([3]; stored 25° C. Closed, 2nd week): Amorphous
- XRPD Pattern [3, 23]: Amorphous
- XRPD Pattern ([3]; stored 25° C. Closed, 4th week): Amorphous
- XRPD Pattern ([3]; stored 25° C./60% RH, 1st week): Amorphous
- XRPD Pattern ([3]; stored 25° C./60% RH, 2nd week): Amorphous
- XRPD Pattern [3, 24]: Amorphous
- XRPD Pattern ([3]; stored 25° C./60% RH, 4th week): Amorphous
- XRPD Pattern ([3]; stored 40° C. Closed, 1st week): Amorphous
- XRPD Pattern ([3]; stored 40° C. Closed, 2nd week): Amorphous
- XRPD Pattern [3, 25]: Amorphous
- XRPD Pattern ([3]; stored 40° C. Closed, 4th week): Amorphous
- XRPD Pattern ([3]; stored 40° C./75% RH, 1st week): Amorphous
- XRPD Pattern ([3]; stored 40° C./75% RH, 2nd week): Amorphous
- XRPD Pattern [3, 26]: Amorphous
- XRPD Pattern ([3]; stored 40° C./75% RH, 4th week): Amorphous
- small spike in the XRPD ([3]; stored 40° C./75% RH, after three months): 13.5 degrees two theta [2θ°]
- Appearance ([4]; Initial): Light Yellow
- Appearance ([4]; stored 25° C. Closed, 1st week): Light
- Appearance ([4]; stored 25° C. Closed, 2nd week): Light
- Appearance [4, 23]: Light
- Appearance ([4]; stored 25° C. Closed, 4th week): Light
- Appearance ([4]; stored 25° C./60% RH, 1st week): Light
- Appearance ([4]; stored 25° C./60% RH, 2nd week): Light
- Appearance [4, 24]: Light
- Appearance ([4]; stored 25° C./60% RH, 4th week): Light
- Appearance ([4]; stored 40° C. Closed, 1st week): Light
- Appearance ([4]; stored 40° C. Closed, 2nd week): Light
- Appearance [4, 25]: Light
- Appearance ([4]; stored 40° C. Closed, 4th week): Light
- Appearance ([4]; stored 40° C./75% RH, 1st week): Light
- Appearance ([4]; stored 40° C./75% RH, 2nd week): Light
- Appearance ([4]; stored 40° C./75% RH, 3rd month, listed as Amorphous Apremilast): Darken
- Appearance ([4]; stored 40° C./75% RH, 3rd month, listed as apremilast): changed from light yellow to darkened yellow
- Appearance ([4]; stored 40° C./75% RH, 4th week): Light
